Measurements taken from patent US11584727B2, “2-thioxothiazolidin-4-one derivatives active as transthyretin ligands and uses thereof” (BSIM Therapeutics, S.A., priority 2014, dated 2023).

What was measured:
[1] = target: Val122Ile transthyretin (V122I-TTR) (Homo sapiens, UniProt P02766, V142I); test: V122I-TTR amyloid fibril formation assay (turbidimetry, acid-induced); type: biochemical; details: pH 4.4, 72 hours
Protocol: (§1) The first set of evaluations is based on a fast, stagnant fibril formation assay that is used for the early screening of compounds, be they virtual screening hits or newly synthesized analogues. In this assay, a solution of the compound under test at 1.8, 3.6 or 7.2 μM is added to a solution of TTR at 3.6 μM, so that there is enough compound to bind to either one or both of TTR's binding sites. The pH of the resulting solution is then lowered to 4.4 to promote amyloidogenesis. The process of amyloid fibril formation over time is assessed by turbidimetry measurements at three different wavelengths (405, 450 and 490 nm, or at 550, 600 and 650 nm when the compound absorbs light at the previous wavelengths), using a spectrophotometer endowed with a BioTek microplate reader. The extent of fibril formation of each mixture is determined by normalizing a sample with the protein (TTR), in absence of compounds, which, at the end of 72 hours, represents 100% of amyloid fibril formation. In each experiment, each compound concentration is tested in triplicate. For each compound concentration and incubation time, the arithmetic mean of the triplicate experiments is calculated, as well as the arithmetic mean of the three measured wavelengths. High activity can be defined as a percentage of fibril formation below 10% at compound concentration 7.2 μM (TTR:compound stoichiometry 1:2) and below 40% at 3.6 μM (TTR:compound stoichiometry 1:1).
(§2) Purchased virtual screening hits and all synthesized (optimization) derivatives were dissolved in DMSO to a final concentration of 10.8 mM to provide a primary stock solution. Several secondary stock solutions were prepared in DMSO by dilution of the primary stock solution and the concentrations were chosen depending on the effectiveness of the compound in inhibiting the TTR amyloid fibril formation.
(§3) The fibril formation assay was adapted to run in a high-throughput screening mode. For this purpose, 96-well microplates were used with a final assay volume of 100 μL.
(§4) One microLitre (μL) of different compound secondary stock solutions was added to 50 μL of a 7.2 μM wild type TTR (WT-TTR) or Val122Ile-TTR (V122I-TTR) solutions in 10 miliMolar (mM) sodium phosphate buffer, 100 mM KCl and 1 mM EDTA, pH 7.2, previously dialyzed against the same buffer solution. After 30 minutes of incubation at room temperature, the pH of the mixture was lowered to 4.4 with 49 μL of 200 mM acetate buffer, 100 mM KCl and 1 mM EDTA, pH 4.3.
(§5) The mixtures were incubated at 37° C. during 72 hours. Turbidity at 405 nm, 450 nm and 490 nm (or at 550, 600 and 650 nm when the test compound absorbs light at the previous wavelengths) was measured over time (0, 17, 24, 41, 48, 65 and 72 hours) using a BioTek Microplate Spectrophotometer to evaluate the extent of fibril formation. Immediately before the turbidity measurements, the mixtures were gently shacked during 1 minute to homogenize well and not damage the formed amyloid aggregates and fibrils. The final turbidity was calculated as an average of the three wavelengths measured.
In addition, control samples containing TTR with no inhibitor and 1% DMSO, as well as inhibitor in absence of TTR were tested and analyzed.
The extent of amyloid fibril formation data was normalized to TTR in the absence of inhibitor, assigned to be 100% fibril formation (or 0% amyloid inhibition) at the end of the experiment.
The extent of amyloid fibril formation throughout 72 hours was determined as described in the “Evaluation of amyloid inhibition in vitro” subsection above.
IC50 values were calculated from the inhibition curves obtained by fitting the values by a nonlinear curve method using the OriginPro7 (OriginLab Corporation, USA).

[2] = target: T1, wild type transthyretin (WT-TTR) (Homo sapiens, UniProt P02766); test: WT-TTR amyloid fibril formation assay (turbidimetry, acid-induced); type: biochemical; details: pH 4.4, 72 hours
T1 construct: made in house; host or cells: E. coli BL21 (DE3), pET23a plasmid
Protocol: as §1
The in vitro activity of the compounds was assessed through a biochemical assay based on turbidimetry measurements, in which fibril formation is induced by acidification of the solution to pH 4.4 after incubation with the hit compound to be tested. The amount of amyloid fibrils formed is then monitored throughout 72 hours. Further details on this assay are provided in the “Evaluation of amyloid inhibition in vitro” subsection in “Materials and Methods”.
Experimental evaluation of the in vitro activity of virtual screening hits against amyloid fibril formation by TTR was carried out using a biochemical assay based on turbidimetry measurements. In this assay, fibril formation is induced by acidification of the solution to pH 4.4 after incubation with the hit compound to be tested. The amount of amyloid fibrils formed is monitored over 72 hours. Further details on the assay are provided in the “Evaluation of amyloid inhibition in vitro” subsection below.
as §2, §3, §4
as §5, with “fibrils.” for “fibrils. The final turbidity was calculated as an average of the three wavelengths measured.”

[3] = HepG2 cell viability, resazurin reduction assay; type: cell-based; details: human, HepG2 hepatoma cells, approximately 72 hours incubation, read-out: inhibitory dose (ID50), cell viability
From the text: Cell viability of HepG2 hepatoma cells was quantified in order to assess the toxicity of the compounds at increasing concentrations. The used assay is described in detail in the “Experimental Evaluation of Cytotoxicity of Compounds using Cell-based Assays” section in “Materials and Methods”. This is a relevant assessment not just to discard potential concerns of liver damage (which is a problem reported for many drugs) but also because of the long-term nature of the treatments that patients suffering from TTR-mediated amyloidoses need to undertake.
Adherent human hepatoma cells HepG2 were cultured in DMEM (Dulbecco's Modified Eagle's Medium) with 10% fetal bovine serum (FBS), 100 U/mL penicillin, […] streptomycin, and 1 mM sodium pyruvate. The cells were grown in 75 cm^2 culture flasks at 37° C., in an atmosphere of 5% CO2, and subcultured twice a week using a trypsin-EDTA solution.
Upon 3 to 4 days of growth and reaching approximately 90% confluence, HepG2 cells were plated in 96-well microplates with cell density of 12×10^3 cells/well and in a volume of 100 μL per well.
The compounds are dissolved in DMSO and subsequently diluted in DMEM (in 9 intermediate […] concentrations). After adhesion of HepG2 cells to the microplates, […] 100 μL of each solution of intermediate compound concentration were added to each well (in quadruplicate). Positive controls were done with 10 wells containing only cells; solvent controls resulted from the analysis of the three highest DMSO concentrations tested and were carried out in triplicate.
After addition of the compounds to the cells, the microplates were incubated for approximately 72 hours at 37° C. in an atmosphere of 5% CO2 until the cell viability assay was performed.
The cell viability of HepG2 cells in the presence of test compounds was assessed by the resazurin reduction assay. Resazurin is a redox indicator that is converted into resorufin through reduction reactions of metabolically active cells. In the oxidized form it presents a purplish blue color, while the reduced form presents a purple-pink color.
A stock solution of 0.01% resazurin in PBS is diluted 1:10 in incomplete RPMI 1640 cell medium (without addition of antibiotics and FBS). After washing the cells with 200 μL PBS containing Ca^2+ and Mg^2+, 200 μL of resazurin 0.001% are added to the wells. Control runs with incomplete RPMI 1640 medium only and (without cells) are done in triplicate. […]
To quantify the reduction of resazurin to resorufin, microplate absorbance readings were taken at two wavelengths, 540 nm (reduced form) and 630 nm (oxidized form), in a Biotek spectrophotometer microplate reader. The percentage of viable cells at each compound concentration is determined using the formula: […]

FAP patients = details: 18-month phase-III clinical trial; cited from earlier work
AD/TTR+/− mice = details: cited from earlier work

Compound: O=C(O)CN1C(=O)/C(=C/c2cc(Cl)c(O)c(Cl)c2)SC1=S [AT50-A03, (Z)-3-hydroxycarbonylmethyl-5-(3′,5′-dichloro-4′-hydroxyphenylmethylidene)-2-thioxothiazolidin-4-one]
- melting point: 262 to 264 °C
- Fibril Formation (%) ([1]; V122I-TTR 3.6 μM, 37° C.): 19%
- IC50 ([1]; V122I-TTR fixed at 3.6 μM, ten compound concentrations): 1610 nM
- Fibril Formation (%) ([2]; WT-TTR 3.6 μM, 1:1 TTR-compound stoichiometry, 37° C., normalized to no-compound control (100%)): 10%
- IC50 ([2]; WT-TTR fixed at 3.6 μM, ten compound concentrations): 1170 ± 30 nM
- IC50 at 72 h [3]: > 400000 nM

Compound: CNC[C@H](O)[C@@H](O)[C@H](O)[C@H](O)CO.O=C(O)c1ccc2nc(-c3cc(Cl)cc(Cl)c3)oc2c1 [Tafamidis meglumine, N-methyl D-(2,3,4,5,6-pentahydroxy-hexyl)-ammonium; 2-(3,5-dichloro-phenyl)-benzoxazole-6-carboxylate]
- FAP patients with improvement of symptoms (FAP patients): approximately 60%

Compound: O=C(O)c1cc(-c2ccc(F)cc2F)cc(I)c1O [iododiflunisal]
- brain Abeta levels and deposition, cognitive function (AD/TTR+/− mice): decreased brain Abeta levels and deposition
